Earlier results, collected in US4279898A, “In vivo inhibitors of cholesterol biosynthesis” (Research Foundation of the City University of New York, priority 1980, dated 1981).

Test system: 5-phosphomevalonate kinase
Conditions: publications by the inventors

CC(O)(CCCP(=O)(O)O)CC(=O)O (stereo not shown) [5-carboxy-4-hydroxy-4-methylpentyl-1-phosphonic acid]
inhibition of 5-phosphomevalonate kinase: inhibition
